Results on four molecules are retold here after patent US8119686B2, “Spiroquinone compound and pharmaceutical composition” (Hykes Laboratories LLC, priority 2006, dated 2012).

Type in all cases: cell-based, human
Assay [1] deals with ABCA1. In words: Increase of ABCA1 in THP-1 cell (membrane fraction, SDS-PAGE and immunoblotting). The conditions noted are these: PMA-differentiated THP-1 macrophages, 24 h culture with compound; relative to cells treated with probucol spiroquinone (=100). The procedure: THP-1 cells (human leukemia cell; manufactured by American Type Culture Collection) were cultured for 24 hours in 10% FBS-RPMI1640 culture medium (manufactured by Sigma) in the presence of PMA (phorbol myristate acetate; 3.2×10^−7 M; manufactured by Wako Pure Chemical Industries, Ltd.) to obtain differentiated macrophages. The resulting cells were washed with RPMI1640 (manufactured by Sigma) and then added to RPMI1640 culture medium (manufactured by Sigma) with BSA (manufactured by Sigma) having a concentration of 0.2%. The spiroquinone derivatives obtained in Examples 1, 6 and 10 was independently added to the culture medium. Each sample was cultured for 24 hours in the presence or absence of apoAI, and then the ABCA1 expression in the cells was assayed in accordance with the following method. Incidentally, the spiroquinone derivative was dissolved in 2-butabol, and the solution was added to the culture medium so that the final concentration of the spiroquinone derivative was 0.5%.
The cells were washed with PBS (phosphate buffered saline; manufactured by Sigma). The washed cells were collected in 0.5 mM Tris-HCl (pH 8.5) containing a protease inhibitor (manufactured by Sigma), stirred, and allowed to stand on ice for 15 minutes. The resulting cell suspension was centrifuged at 470×g for 5 minutes to precipitate nuclear fractions. Thereafter, the supernatant was centrifuged at 316,000×g for 30 minutes to precipitate membrane fractions. The membrane fractions (15 μg protein) were used to conduct SDS-PAGE and Immunoblotting. The obtained band of the ABCA1 protein was converted into digital data by using an image analysis software (manufactured by […], Photoshop). The relative ratio (%) of the ABCA1 expression level of the cells treated with the spiroquinone derivative to that of the cells treated with probucol spiroquinone was calculated to evaluate the ABCA1 expression activity of the test compounds.
For orientation: A western blot detects proteins with antibodies after separation by electrophoresis.

The test system of assay [2] is ABCA1 mRNA. Briefly: mRNA expression of intracellular ABCA1 (Real Time PCR). The conditions noted are these: for mRNA Expression level of ABCA1 (relative ratio %): THP-1 macrophages, standardized to GAPDH mRNA, relative to untreated cells (=100). The protocol:
The cells washed with PBS in Test Example 1 were used. From the cells, RNA was extracted with ISOGEN (manufactured by Wako Pure Chemical Industries, Ltd.). By using a Super Script First-Strand Synthesis System for RT-PCR (manufactured by Invitrogen) cDNA was prepared, and the mRNA expression of ABCA1 was assayed by Real Time PCR using ABCA1 specific primer and Power SYBR Green PCR Master Mix (manufactured by Applied Biosystems).
Moreover, the mRNA expression of GAPDH as an internal control was also assayed simultaneously. The mRNA expression level of ABCA1 was standardized as a ratio (%) relative to the mRNA expression level of GAPDH. The mRNA expression level of ABCA1 in the cells treated with the test compound relative to that in untreated cells was calculated and evaluated.
In general terms: Quantitative PCR measures a nucleic acid by following its amplification.

The subject of assay [3] is THP-1 cells. In words: Acceleration of HDL production reaction (apoA-I-dependent cholesterol release into culture medium). Conditions: for apoA-1-dependent HDL cholesterol release, increase as compared with probucol spiroquinone: THP-1 cells, fold versus cells treated with probucol spiroquinone; for HDL cholesterol release (relative ratio %): THP-1 macrophages, culture medium after 24 h culture, apoA-I-dependent, relative to cells treated with probucol spiroquinone (=100). The protocol: The culture medium after 24-hour culture in the presence or absence of apoAI in Test Example 1 was used to examine cholesterol release into the culture medium by the apoA-1-dependent HDL-generating reaction.
Specifically, the culture medium was collected in a 1.5 ml tube and centrifuged at 316,000×g for 5 minutes, and the supernatant was transferred in a glass tube. To the supernatant was added a mixture of chloroform and methanol (volume ratio=2/1) (manufactured by Wako Pure Chemical Industries, Ltd.). The resulting mixture was stirred and further centrifuged at 1,300×g for 5 minutes. After the centrifugation, the resulting water layer was removed. Water was added to the remaining organic layer, and the mixture was stirred again and centrifuged at 1,300×g for 5 minutes. After the centrifugation, the resulting water layer was removed. The organic layer was evaporated to dryness, and cholesterol remaining in the glass tube was quantitatively determined according to an enzymatic method. The relative ratio (%) of the amount of cholesterol release as HDL from the cells treated with the spiroquinone derivative to that from the cells treated with probucol spiroquinone was calculated to evaluate the HDL cholesterol release from the cells treated with the test compounds.

`CC1(CCC(=O)O)SC2(C=C(C(C)(C)C)C(=O)C(C(C)(C)C)=C2)C2(C=C(C(C)(C)C)C(=O)C(C(C)(C)C)=C2)S1` [Example 1, 14-carboxyethyl-14-methyl-2,4,9,11-tetrakis(t-butyl)-13,15-dithiadispiro[5.0.5.3]pentadeca-1,4,8,11-tetraene-3,10-dione]: the “ABCA1 expression level (relative ratio %)” value in assay [1] was found to be 238%.

With `CCCC1(C)SC2(C=C(C(C)(C)C)C(=O)C(C(C)(C)C)=C2)C2(C=C(C(C)(C)C)C(=O)C(C(C)(C)C)=C2)S1` [Example 6, 14-methyl-2,4,9,11-tetrakis(t-butyl)-14-n-propyl-13,15-dithiadispiro[5.0.5.3]pentadeca-1,4,8,11-tetraene-3,10-dione], the “ABCA1 expression level (relative ratio %)” value in assay [1] is listed as 176%. In assay [2] (THP-1 cells), the “mRNA expression of ABCA1 in treated THP-1 cells (in words)” value is recorded as “not found”. Further, in assay [2], the “mRNA Expression level of ABCA1 (relative ratio %)” value is reported as 51%. Moreover, in assay [3], the “apoA-1-dependent HDL cholesterol release, increase as compared with probucol spiroquinone” value is recorded as “about 1.3 times” and the “HDL cholesterol release (relative ratio %)” value was found to be 134%.

Regarding `CC(C)(C)C1=CC2(C=C(C(C)(C)C)C1=O)SC1(CCCC1)SC21C=C(C(C)(C)C)C(=O)C(C(C)(C)C)=C1` [Example 10, 9,11,15,17-tetrakis(t-butyl)-6,19-dithiadispiro[4.1.5^7.0.5^13.1^5]nonadeca-8,11,14,17-tetraene-10,16-dione], the “ABCA1 expression level (relative ratio %)” value in assay [1] is 309%. Besides, in assay [3], the “apoA-1-dependent HDL cholesterol release, increase as compared with probucol spiroquinone” value is listed as “about 1.3 times” and the “HDL cholesterol release (relative ratio %)” value worked out at 128%.

Regarding `CC1(C)SC2(C=C(C(C)(C)C)C(=O)C(C(C)(C)C)=C2)C2(C=C(C(C)(C)C)C(=O)C(C(C)(C)C)=C2)S1` [Probucol spiroquinone, reference compound], in assay [1], the “ABCA1 expression level (relative ratio %)” value stood at 100%. The “mRNA Expression level of ABCA1 (relative ratio %)” value in assay [2] was 65%. For the same molecule, the “HDL cholesterol release (relative ratio %)” value in assay [3] is 100%.
